Key:
[1] = target: Prostacyclin receptor (Homo sapiens) (UniProt P43119); assay: Selectivity interaction (Eurofins CEREP Diversity Profile (receptors and ion channels)) EUB0000279b PTGIR; settings: at 10 µM
[2] = target: ATP-sensitive inward rectifier potassium channel 11 (Homo sapiens) (UniProt Q14654); assay: Selectivity interaction (Eurofins CEREP Diversity Profile (receptors and ion channels)) EUB0000279b KCNJ11; settings: at 10 µM
[3] = target: Calcium/calmodulin-dependent protein kinase type 1 (Homo sapiens) (UniProt Q14012); assay: Selectivity interaction (ActivX KiNativ screen (kinase selectivity in THP-1 cell lysates)) EUB0000639a CAMK1; assay type: subcellular; settings: lysate, at 1 µM
Calcium/calmodulin-dependent protein kinase type 1 (Homo sapiens), sequence (Q14012 whole entry, looked up): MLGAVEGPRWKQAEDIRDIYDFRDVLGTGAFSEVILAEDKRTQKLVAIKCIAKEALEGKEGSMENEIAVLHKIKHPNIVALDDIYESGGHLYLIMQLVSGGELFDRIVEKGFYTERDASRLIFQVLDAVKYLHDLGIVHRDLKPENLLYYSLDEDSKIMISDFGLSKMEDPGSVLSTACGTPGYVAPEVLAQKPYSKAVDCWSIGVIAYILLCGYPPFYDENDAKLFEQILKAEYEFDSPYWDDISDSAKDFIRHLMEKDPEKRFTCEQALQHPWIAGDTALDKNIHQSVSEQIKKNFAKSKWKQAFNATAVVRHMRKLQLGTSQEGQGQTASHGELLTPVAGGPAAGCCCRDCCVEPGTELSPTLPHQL

[4] = target: 5'-AMP-activated protein kinase catalytic subunit alpha-1 (Homo sapiens, UniProt Q13131); assay: Selectivity interaction (KinomeScan (DiscoverX)) EUB0000595a PRKAA1; settings: at 10 µM
5'-AMP-activated protein kinase catalytic subunit alpha-1, sequence (Q13131 whole entry, looked up): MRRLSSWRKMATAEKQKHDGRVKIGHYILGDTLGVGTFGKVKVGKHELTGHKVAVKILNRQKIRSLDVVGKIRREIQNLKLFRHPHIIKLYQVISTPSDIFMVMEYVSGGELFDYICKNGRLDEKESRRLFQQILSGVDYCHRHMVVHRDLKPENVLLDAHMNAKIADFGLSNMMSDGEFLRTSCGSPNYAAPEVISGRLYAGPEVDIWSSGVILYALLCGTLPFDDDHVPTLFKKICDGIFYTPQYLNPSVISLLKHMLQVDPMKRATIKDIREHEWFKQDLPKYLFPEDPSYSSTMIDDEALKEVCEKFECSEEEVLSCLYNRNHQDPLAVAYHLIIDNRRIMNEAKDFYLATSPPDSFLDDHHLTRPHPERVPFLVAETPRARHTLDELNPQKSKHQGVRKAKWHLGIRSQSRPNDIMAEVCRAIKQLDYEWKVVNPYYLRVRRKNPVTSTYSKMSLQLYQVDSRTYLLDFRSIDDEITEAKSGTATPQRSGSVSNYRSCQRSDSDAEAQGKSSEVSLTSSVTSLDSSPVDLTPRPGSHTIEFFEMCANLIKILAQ

[5] = target: T1, Serine/threonine-protein kinase 3 (Homo sapiens) (UniProt Q13188); assay: Selectivity interaction (KinomeScan (DiscoverX)) EUB0000092b STK3; settings: at 10 µM
T1 sequence (whole entry): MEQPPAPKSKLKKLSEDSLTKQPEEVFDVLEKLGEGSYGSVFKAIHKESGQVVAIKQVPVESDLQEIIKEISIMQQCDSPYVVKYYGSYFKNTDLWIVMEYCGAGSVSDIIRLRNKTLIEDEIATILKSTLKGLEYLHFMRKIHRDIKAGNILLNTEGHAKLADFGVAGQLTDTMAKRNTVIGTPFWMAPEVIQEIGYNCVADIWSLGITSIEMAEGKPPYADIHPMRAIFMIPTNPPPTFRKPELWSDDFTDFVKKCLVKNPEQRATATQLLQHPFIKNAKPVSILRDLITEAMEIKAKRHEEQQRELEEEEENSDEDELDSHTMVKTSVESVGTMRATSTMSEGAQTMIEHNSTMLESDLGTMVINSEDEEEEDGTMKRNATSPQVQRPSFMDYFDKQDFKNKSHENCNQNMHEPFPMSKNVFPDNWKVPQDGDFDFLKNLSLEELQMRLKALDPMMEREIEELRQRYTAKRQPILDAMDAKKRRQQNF

[6] = target: Mitogen-activated protein kinase 8 (Homo sapiens, UniProt P45983); assay: Selectivity interaction (Ambit KINOMEscan and KiNATiv profiling in Jurkat cells) EUB0000090b MAPK8; assay type: cell-based; settings: at 1 µM
Mitogen-activated protein kinase 8, sequence (P45983 whole entry): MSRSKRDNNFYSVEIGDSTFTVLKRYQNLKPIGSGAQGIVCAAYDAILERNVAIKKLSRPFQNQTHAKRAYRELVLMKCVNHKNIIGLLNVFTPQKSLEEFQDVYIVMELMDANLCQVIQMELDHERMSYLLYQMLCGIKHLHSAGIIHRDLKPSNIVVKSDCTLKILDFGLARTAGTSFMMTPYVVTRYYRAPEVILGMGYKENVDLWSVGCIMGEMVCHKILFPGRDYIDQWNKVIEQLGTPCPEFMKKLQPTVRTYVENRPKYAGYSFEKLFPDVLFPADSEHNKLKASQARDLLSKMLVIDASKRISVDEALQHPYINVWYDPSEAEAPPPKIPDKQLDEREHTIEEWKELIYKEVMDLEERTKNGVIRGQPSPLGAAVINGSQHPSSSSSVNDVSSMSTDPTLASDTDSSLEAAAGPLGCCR

[7] = tested on: Tyrosine-protein kinase ABL1 (Homo sapiens), P00519 [Y253F]; assay: (§1) Selectivity interaction (KinomeScan (DiscoverX)) EUB0000045b ABL1
[8] = tested on: Tyrosine-protein kinase ABL1 (Homo sapiens), P00519 [F317L]; assay: as §1
[9] = tested on: Tyrosine-protein kinase ABL1 (Homo sapiens), P00519 [F317I]; assay: as §1
[10] = target: Tyrosine-protein kinase ABL1 (Homo sapiens, UniProt P00519); assay: as §1
[11] = tested on: Tyrosine-protein kinase ABL1 (Homo sapiens), P00519 [H396P]; assay: as §1
[12] = tested on: Tyrosine-protein kinase ABL1 (Homo sapiens), P00519 [M351T]; assay: as §1
[13] = tested on: Tyrosine-protein kinase ABL1 (Homo sapiens), P00519 [E255K]; assay: as §1
[14] = tested on: Tyrosine-protein kinase ABL1 (Homo sapiens), P00519 [T315I]; assay: as §1
[15] = tested on: Tyrosine-protein kinase ABL1 (Homo sapiens), P00519 [Q252H]; assay: as §1
[16] = target: T2, Myosin light chain kinase family member 4 (Homo sapiens) (UniProt Q86YV6); assay: Selectivity interaction (KinomeScan (DiscoverX)) EUB0000618a MYLK4; settings: at 10 µM
T2 sequence (whole entry): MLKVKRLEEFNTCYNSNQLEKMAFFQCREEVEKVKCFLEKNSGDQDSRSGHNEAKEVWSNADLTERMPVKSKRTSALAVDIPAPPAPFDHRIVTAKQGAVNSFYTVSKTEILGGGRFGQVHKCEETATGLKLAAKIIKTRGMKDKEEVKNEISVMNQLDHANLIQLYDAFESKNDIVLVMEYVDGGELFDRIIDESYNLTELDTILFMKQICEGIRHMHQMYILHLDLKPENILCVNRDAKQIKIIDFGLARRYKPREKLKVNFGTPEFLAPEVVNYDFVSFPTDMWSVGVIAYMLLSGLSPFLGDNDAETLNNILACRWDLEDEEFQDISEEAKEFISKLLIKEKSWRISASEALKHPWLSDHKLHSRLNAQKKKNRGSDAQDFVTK

[17] = target: Calcium/calmodulin-dependent protein kinase type 1 (Homo sapiens) (UniProt Q14012); settings: at 10 µM
[18] = target: RAC-gamma serine/threonine-protein kinase (Homo sapiens, UniProt Q9Y243); assay: Selectivity interaction (Kinase panel (Z-LYTE Assay)) EUB0001632a AKT3; settings: at 10 µM
[19] = target: Homeodomain-interacting protein kinase 1 (Homo sapiens, UniProt Q86Z02); assay: Selectivity interaction (Kinase panel (Z-LYTE Assay)) EUB0001632a HIPK1; settings: at 10 µM
Homeodomain-interacting protein kinase 1, sequence (Q86Z02 whole entry, looked up): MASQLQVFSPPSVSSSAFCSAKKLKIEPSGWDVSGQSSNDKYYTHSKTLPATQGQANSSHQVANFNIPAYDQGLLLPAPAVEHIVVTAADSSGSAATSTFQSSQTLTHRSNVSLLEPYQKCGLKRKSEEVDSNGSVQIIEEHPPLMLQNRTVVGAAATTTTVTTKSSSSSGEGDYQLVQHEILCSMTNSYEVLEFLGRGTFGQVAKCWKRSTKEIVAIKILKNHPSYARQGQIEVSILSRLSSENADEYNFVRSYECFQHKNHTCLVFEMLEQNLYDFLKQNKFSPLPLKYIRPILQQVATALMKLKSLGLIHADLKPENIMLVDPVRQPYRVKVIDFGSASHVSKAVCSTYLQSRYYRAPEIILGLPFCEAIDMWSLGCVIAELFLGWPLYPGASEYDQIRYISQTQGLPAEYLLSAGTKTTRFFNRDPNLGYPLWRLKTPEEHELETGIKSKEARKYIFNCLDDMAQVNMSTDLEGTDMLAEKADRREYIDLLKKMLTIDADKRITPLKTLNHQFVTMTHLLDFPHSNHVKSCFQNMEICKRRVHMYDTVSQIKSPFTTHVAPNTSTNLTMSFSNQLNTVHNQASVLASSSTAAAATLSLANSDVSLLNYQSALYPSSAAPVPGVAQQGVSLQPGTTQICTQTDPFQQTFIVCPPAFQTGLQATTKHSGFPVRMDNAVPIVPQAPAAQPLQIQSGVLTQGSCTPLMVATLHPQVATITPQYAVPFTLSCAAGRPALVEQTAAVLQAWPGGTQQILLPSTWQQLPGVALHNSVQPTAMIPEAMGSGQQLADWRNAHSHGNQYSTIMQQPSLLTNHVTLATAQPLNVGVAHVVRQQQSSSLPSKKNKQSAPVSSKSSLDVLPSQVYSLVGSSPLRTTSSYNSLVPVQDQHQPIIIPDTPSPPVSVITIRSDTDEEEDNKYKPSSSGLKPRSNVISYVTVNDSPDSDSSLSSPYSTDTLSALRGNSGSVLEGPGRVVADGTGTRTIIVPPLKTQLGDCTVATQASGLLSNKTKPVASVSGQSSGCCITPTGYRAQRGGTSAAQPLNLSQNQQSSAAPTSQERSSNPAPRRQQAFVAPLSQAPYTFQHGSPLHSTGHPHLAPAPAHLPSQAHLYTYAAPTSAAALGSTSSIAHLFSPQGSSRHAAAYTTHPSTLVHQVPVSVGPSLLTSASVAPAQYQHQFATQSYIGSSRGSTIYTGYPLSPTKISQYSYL

[20] = target: Proto-oncogene tyrosine-protein kinase ROS (Homo sapiens) (UniProt P08922); assay: Selectivity interaction (ProQinase) EUB0000171b ROS1
Proto-oncogene tyrosine-protein kinase ROS (Homo sapiens), sequence (P08922 whole entry): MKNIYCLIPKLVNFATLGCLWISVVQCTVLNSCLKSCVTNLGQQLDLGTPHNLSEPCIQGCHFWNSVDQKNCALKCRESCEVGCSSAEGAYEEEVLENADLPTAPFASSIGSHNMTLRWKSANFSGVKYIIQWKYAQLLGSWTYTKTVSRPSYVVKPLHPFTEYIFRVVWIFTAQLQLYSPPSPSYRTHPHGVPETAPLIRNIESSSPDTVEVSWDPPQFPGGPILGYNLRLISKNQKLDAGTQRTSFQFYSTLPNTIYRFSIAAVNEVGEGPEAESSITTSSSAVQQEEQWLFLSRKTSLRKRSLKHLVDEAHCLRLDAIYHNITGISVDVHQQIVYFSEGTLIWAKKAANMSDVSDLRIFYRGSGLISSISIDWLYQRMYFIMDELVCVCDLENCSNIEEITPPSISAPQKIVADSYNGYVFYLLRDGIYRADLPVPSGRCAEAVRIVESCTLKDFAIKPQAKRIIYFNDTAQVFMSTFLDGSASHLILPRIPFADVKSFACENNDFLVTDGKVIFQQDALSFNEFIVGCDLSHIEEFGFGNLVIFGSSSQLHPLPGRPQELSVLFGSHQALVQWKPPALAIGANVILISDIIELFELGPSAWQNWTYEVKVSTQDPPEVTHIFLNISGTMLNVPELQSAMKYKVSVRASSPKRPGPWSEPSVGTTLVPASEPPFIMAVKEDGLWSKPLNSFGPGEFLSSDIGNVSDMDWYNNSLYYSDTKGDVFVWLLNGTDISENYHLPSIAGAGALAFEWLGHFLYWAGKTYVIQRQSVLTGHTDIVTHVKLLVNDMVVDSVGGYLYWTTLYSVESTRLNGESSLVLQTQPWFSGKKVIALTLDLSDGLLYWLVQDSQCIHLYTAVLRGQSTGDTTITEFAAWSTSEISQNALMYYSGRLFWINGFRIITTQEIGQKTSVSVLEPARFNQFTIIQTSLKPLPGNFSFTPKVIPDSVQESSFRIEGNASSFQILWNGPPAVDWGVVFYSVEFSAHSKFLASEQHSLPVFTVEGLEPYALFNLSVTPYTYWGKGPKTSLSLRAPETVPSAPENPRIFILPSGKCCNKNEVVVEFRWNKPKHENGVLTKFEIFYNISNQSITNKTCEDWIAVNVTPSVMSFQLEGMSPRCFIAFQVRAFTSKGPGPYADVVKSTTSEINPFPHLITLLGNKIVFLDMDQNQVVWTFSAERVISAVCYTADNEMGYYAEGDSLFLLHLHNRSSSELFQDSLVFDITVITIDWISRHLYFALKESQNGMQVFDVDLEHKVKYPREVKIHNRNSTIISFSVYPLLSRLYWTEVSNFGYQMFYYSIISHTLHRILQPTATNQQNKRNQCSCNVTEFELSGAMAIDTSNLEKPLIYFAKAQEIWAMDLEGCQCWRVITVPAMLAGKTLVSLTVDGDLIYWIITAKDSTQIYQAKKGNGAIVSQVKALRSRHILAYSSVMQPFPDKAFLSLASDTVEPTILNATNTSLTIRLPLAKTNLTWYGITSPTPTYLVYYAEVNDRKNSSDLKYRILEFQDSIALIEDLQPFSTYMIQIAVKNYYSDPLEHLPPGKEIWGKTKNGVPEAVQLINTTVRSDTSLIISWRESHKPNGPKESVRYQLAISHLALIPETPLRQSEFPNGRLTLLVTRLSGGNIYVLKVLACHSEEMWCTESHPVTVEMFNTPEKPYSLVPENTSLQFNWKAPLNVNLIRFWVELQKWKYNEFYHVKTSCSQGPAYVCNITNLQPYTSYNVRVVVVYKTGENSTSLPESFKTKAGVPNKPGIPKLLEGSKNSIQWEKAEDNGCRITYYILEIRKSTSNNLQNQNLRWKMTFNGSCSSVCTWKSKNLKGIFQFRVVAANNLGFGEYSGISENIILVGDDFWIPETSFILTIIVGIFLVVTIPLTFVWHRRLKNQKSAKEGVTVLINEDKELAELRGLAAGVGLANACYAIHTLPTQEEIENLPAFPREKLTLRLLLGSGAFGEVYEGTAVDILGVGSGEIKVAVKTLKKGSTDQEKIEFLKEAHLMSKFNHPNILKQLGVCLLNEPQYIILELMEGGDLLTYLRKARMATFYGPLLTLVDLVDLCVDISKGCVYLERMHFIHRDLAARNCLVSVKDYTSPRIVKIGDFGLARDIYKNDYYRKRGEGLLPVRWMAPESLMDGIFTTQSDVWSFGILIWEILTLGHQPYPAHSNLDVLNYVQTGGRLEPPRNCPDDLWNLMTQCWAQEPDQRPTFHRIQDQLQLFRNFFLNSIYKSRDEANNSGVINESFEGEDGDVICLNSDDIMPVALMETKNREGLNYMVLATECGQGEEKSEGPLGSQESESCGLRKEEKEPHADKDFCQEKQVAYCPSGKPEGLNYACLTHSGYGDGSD

CC(=O)c1cc(-c2ccccc2OCC2CC2)c2ncccn12
% of control [1]: 108% | % of control [2]: 105%

CC[C@@H]1[C@H](F)C(=O)N[C@@H]1COc1nccc2cc(C(N)=O)c(OC)cc12 [ZIMLOVISERTIB]
% of inhibition [3]: -14.5%

COCC(=O)NC/C=C/c1ccc2ncnc(Nc3ccc(Oc4ccc(C)nc4)c(C)c3)c2c1 [CP-724714]
% of control [4]: 89%

CCC(=O)N1CCN(c2ccc(-n3c(=O)ccc4cnc5ccc(-c6cnc7ccccc7c6)cc5c43)cc2C(F)(F)F)CC1
% of control [5]: 24%

CN(C)C/C=C/C(=O)Nc1ccc(C(=O)N2CCCC(Nc3ncc(Cl)c(-c4c[nH]c5ccccc45)n3)C2)cc1 (stereo not given)
% of control [6]: 0.95%

C=CC(=O)Nc1cc(-n2c(=O)ccc3cnc4ccc(-c5ccc(NS(C)(=O)=O)cc5)cc4c32)ccc1C
% of control ([7]; at 1 µM): 100% | % of control ([7]; at 10 µM): 76% | % of control ([8]; at 1 µM): 100% | % of control ([8]; at 10 µM): 100% | % of control ([9]; at 1 µM): 100% | % of control ([9]; at 10 µM): 100% | % of control ([10]; at 1 µM): 100% | % of control ([10]; at 10 µM): 73% | % of control ([11]; at 1 µM): 100% | % of control ([11]; at 10 µM): 100% | % of control ([12]; at 1 µM): 90% | % of control ([12]; at 10 µM): 86% | % of control ([13]; at 1 µM): 63% | % of control ([13]; at 10 µM): 77% | % of control ([14]; at 1 µM): 100% | % of control ([14]; at 10 µM): 100% | % of control ([15]; at 1 µM): 100% | % of control ([15]; at 10 µM): 100%

O[C@H]1CC[C@H](Nc2ncc3nc(Nc4c(F)cc(F)cc4F)n([C@H]4CCOC4)c3n2)CC1
% of control [16]: 100%

Cc1cc([C@@H](C)Nc2ccccc2C(=O)O)c2nc(N3CCOCC3)cc(=O)n2c1 [AZD-6482]
% of control [17]: 100%

Cn1cc(-n2cnc3c(NCc4nc5cc(Cl)c(Cl)cc5[nH]4)nc(N4CCOCC4)nc32)cn1
% of control [18]: 2.65% | % of control [19]: -0.292%

C=CC(=O)Nc1cccc(C(=O)Nc2ccc(Nc3cc(-c4[nH]c(SC)nc4C)ccn3)cc2)c1
% of control ([20]; at 1 µM): 87% | % of control ([20]; at 5 µM): 74%

— ChEMBL document CHEMBL5465560, “Selectivity Literature for EUbOPEN Chemogenomic Library” (2024)
